Assay results as given in PubChem BioAssay (NCI).
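Results reflect a 48-hour exposure of cells in 96-well plates to compound at five concentrations. At the TGI there is no net growth.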

Legend:
Assay in all cases: NCI anticancer screen, dose series, 48 h
[1] = test system: SK-OV-3 ovarian
[2] = test system: A498 renal
[3] = test system: SN12C renal
[4] = test system: OVCAR-5 ovarian
[5] = test system: HOP-92 NSCLC
[6] = test system: MDA-N
[7] = test system: OVCAR-4 ovarian
[8] = test system: EKVX NSCLC
[9] = test system: UACC-257 melanoma
[10] = test system: HS 578T breast
[11] = test system: SF-539 CNS
[12] = test system: RXF 393 renal
[13] = test system: HCC-2998 colon
[14] = test system: DU-145 prostate
[15] = test system: NCI/ADR-RES ovarian
[16] = test system: HL-60(TB) leukemia
[17] = test system: IGROV1 ovarian
[18] = test system: ACHN renal
[19] = test system: NCI-H460 lung
[20] = test system: CCRF-CEM leukemia
[21] = test system: HCT-15 colon
[22] = test system: SNB-19 CNS
[23] = test system: T-47D breast
[24] = test system: KM12 colon
[25] = test system: HT29 colon
[26] = test system: MCF7 breast
[27] = test system: MDA-MB-231 breast
[28] = test system: PC-3 prostate
[29] = test system: SF-268 CNS
[30] = test system: SK-MEL-28 melanoma
[31] = test system: K-562 leukemia
[32] = test system: CAKI-1 renal
[33] = test system: RPMI-8226 leukemia
[34] = test system: SR leukemia
[35] = test system: SK-MEL-2 melanoma
[36] = test system: OVCAR-8 ovarian
[37] = test system: SF-295 CNS
[38] = test system: U251 CNS
[39] = test system: SNB-75 CNS
[40] = test system: OVCAR-3 ovarian
[41] = test system: A549 NSCLC
[42] = test system: COLO 205 colon
[43] = test system: LOX IMVI melanoma
[44] = test system: HCT-116 colon
[45] = test system: TK-10 renal
[46] = test system: MDA-MB-435
[47] = test system: MALME-3M melanoma
[48] = test system: NCI-H522 lung
[49] = test system: 786-0 renal
[50] = test system: HOP-62 NSCLC
[51] = test system: NCI-H23 lung
[52] = test system: UO-31 renal
[53] = test system: M14 melanoma
[54] = test system: MOLT-4 leukemia
[55] = test system: NCI-H226 lung
[56] = test system: SW-620 colon
[57] = test system: SK-MEL-5 melanoma

O=c1ccn(C2OC(COC3CCCCO3)C(OC3CCCCO3)C2OC2CCCCO2)c(=O)n1-c1ccccc1 (stereo not drawn)
TGI [1]: > 100 µM
TGI [2]: > 100 µM
TGI [3]: > 100 µM
TGI [4]: > 100 µM
TGI [5]: > 100 µM
TGI [6]: > 100 µM
TGI [7]: > 100 µM
TGI [8]: > 100 µM
TGI [9]: > 100 µM
TGI [10]: > 100 µM
TGI [11]: > 100 µM
TGI [12]: > 100 µM
TGI [13]: > 100 µM
TGI [14]: > 100 µM
TGI [15]: > 100 µM
TGI [16]: > 100 µM
TGI [17]: > 100 µM
TGI [18]: > 100 µM
TGI [19]: > 100 µM
TGI [20]: > 100 µM
TGI [21]: > 100 µM
TGI [22]: > 100 µM
TGI [23]: > 100 µM
TGI [24]: > 100 µM
TGI [25]: > 100 µM
TGI [26]: > 100 µM
TGI [27]: > 100 µM
TGI [28]: > 100 µM
TGI [29]: > 100 µM
TGI [30]: > 100 µM
TGI [31]: > 100 µM
TGI [32]: > 100 µM
TGI [33]: > 100 µM
TGI [34]: > 100 µM
TGI [35]: > 100 µM
TGI [36]: > 100 µM
TGI [37]: > 100 µM
TGI [38]: > 100 µM
TGI [39]: > 100 µM
TGI [40]: > 100 µM
TGI [41]: > 100 µM
TGI [42]: > 100 µM
TGI [43]: > 100 µM
TGI [44]: > 100 µM
TGI [45]: > 100 µM
TGI [46]: > 100 µM
TGI [47]: > 100 µM
TGI [48]: > 100 µM
TGI [49]: > 100 µM
TGI [50]: > 100 µM
TGI [51]: > 100 µM
TGI [52]: > 100 µM
TGI [53]: > 100 µM
TGI [54]: > 100 µM
TGI [55]: > 100 µM
TGI [56]: > 100 µM
TGI [57]: > 100 µM

CCOC(=O)Cn1nc2ccc(Nc3c(C)[n+]([O-])c4cc(F)c(OCC)cc4[n+]3[O-])cc2n1
TGI [1]: > 100 µM
TGI [2]: > 100 µM
TGI [4]: > 100 µM
TGI [5]: 63.8 µM
TGI [6]: > 100 µM
TGI [7]: > 100 µM
TGI [8]: > 100 µM
TGI [9]: > 100 µM
TGI [10]: > 100 µM
TGI [11]: > 100 µM
TGI [12]: 51.9 µM
TGI [14]: > 100 µM
TGI [15]: > 100 µM
TGI [16]: > 100 µM
TGI [17]: > 100 µM
TGI [18]: 90.2 µM
TGI [19]: > 100 µM
TGI [20]: > 100 µM
TGI [21]: > 100 µM
TGI [23]: > 100 µM
TGI [24]: > 100 µM
TGI [25]: > 100 µM
TGI [26]: > 100 µM
TGI [27]: > 100 µM
TGI [28]: > 100 µM
TGI [29]: > 100 µM
TGI [30]: > 100 µM
TGI [31]: > 100 µM
TGI [32]: > 100 µM
TGI [33]: > 100 µM
TGI [34]: > 100 µM
TGI [35]: > 100 µM
TGI [36]: > 100 µM
TGI [37]: > 100 µM
TGI [38]: > 100 µM
TGI [40]: > 100 µM
TGI [43]: > 100 µM
TGI [44]: > 100 µM
TGI [45]: 71.8 µM
TGI [46]: > 100 µM
TGI [48]: > 100 µM
TGI [49]: > 100 µM
TGI [50]: > 100 µM
TGI [51]: > 100 µM
TGI [52]: > 100 µM
TGI [53]: > 100 µM
TGI [54]: > 100 µM
TGI [55]: > 100 µM
TGI [56]: > 100 µM
TGI [57]: > 100 µM

CC1(C)CC(=O)c2c(nc3c(ccc4ccccc43)c2-c2ccc(NC(=O)CCCC(=O)Nc3ccc(-c4c5c(nc6c4ccc4ccccc46)CC(C)(C)CC5=O)cc3)cc2)C1
TGI [1]: > 100 µM
TGI [3]: > 100 µM
TGI [4]: > 100 µM
TGI [6]: > 100 µM
TGI [8]: > 100 µM
TGI [9]: > 100 µM
TGI [10]: > 100 µM
TGI [11]: > 100 µM
TGI [12]: > 100 µM
TGI [14]: > 100 µM
TGI [15]: > 100 µM
TGI [16]: > 100 µM
TGI [17]: > 100 µM
TGI [18]: > 100 µM
TGI [19]: > 100 µM
TGI [20]: > 100 µM
TGI [21]: > 100 µM
TGI [22]: > 100 µM
TGI [23]: > 100 µM
TGI [24]: > 100 µM
TGI [25]: > 100 µM
TGI [26]: > 100 µM
TGI [27]: > 100 µM
TGI [28]: > 100 µM
TGI [29]: > 100 µM
TGI [30]: > 100 µM
TGI [31]: > 100 µM
TGI [32]: > 100 µM
TGI [33]: > 100 µM
TGI [34]: > 100 µM
TGI [35]: > 100 µM
TGI [36]: > 100 µM
TGI [37]: > 100 µM
TGI [38]: > 100 µM
TGI [39]: > 100 µM
TGI [40]: > 100 µM
TGI [41]: > 100 µM
TGI [42]: > 100 µM
TGI [43]: > 100 µM
TGI [44]: > 100 µM
TGI [45]: > 100 µM
TGI [46]: > 100 µM
TGI [48]: > 100 µM
TGI [49]: > 100 µM
TGI [50]: > 100 µM
TGI [52]: > 100 µM
TGI [53]: > 100 µM
TGI [54]: > 100 µM
TGI [55]: > 100 µM
TGI [56]: > 100 µM
TGI [57]: > 100 µM
